Measured values reported in US9464061B2, “N-hydroxylamino-barbituric acid derivatives” (priority 2014, dated 2016).
Marks after values point to notes of the source that are not given here.

How the values were obtained:
physchem [1] = conditions: buffer, pH 7.4
[2] = pH 7.4
[3] = pH 7.4; remark: listed apart in the source
physchem [4] = conditions: buffer, pH 7.4; remark: listed apart in the source
[5] = reported in WO 2013/059194; cited from earlier work
[6] = UV-vis method for pKa determination of compound 4 (Example 20); type: physicochemical; conditions: 0.10 M phosphate buffer, 25° C., read-out: pKa (ring nitrogen proton)
Protocol: A 1 mM solution of compound 4 is prepared in acetonitrile. To a cuvette containing 3.0 mL of 0.10 M phosphate buffer of the desired pH at 25° C. is added 50 μL of the compound 4 solution. The solution is mixed quickly by rapidly drawing up and dispensing the solution with a pipette. Absorbance spectra are collected immediately after the solution has mixed and settled.

SMILES	half-life (physchem [1])	k (rate of appearance of BA byproduct, single exponential fit) [2]	HNO yield [3]	k (rate of disappearance of compound and appearance of BA byproduct, single exponential fit) [3]	other results
O=C1NC(=O)C(Cc2cccs2)(NO)C(=O)N1 [Compound 16, 5-(N-hydroxylamino)-5-(2-thienylmethyl)-barbituric acid]	0.667 h	0.00029 s⁻¹	–	–	–
CN1C(=O)N(C)C(=O)C(Cc2ccc(Cl)cc2)(NO)C1=O [Compound 3, 5-(N-hydroxylamino)-5-(4-chlorobenzyl)-N,N-dimethylbarbituric acid]	–	0.00025 s⁻¹	92^d	0.0006 s⁻¹	melting point: 155 to 157 °C
O=C1NC(=O)C(Cc2ccc(Cl)cc2)(NO)C(=O)N1 [Compound 7, 5-(N-hydroxylamino)-5-(4-chlorobenzyl)-barbituric acid]	1.18 h	0.00016 s⁻¹	–	–	–
O=C1NC(=O)C(Cc2ccccc2)(NO)C(=O)N1 [Compound 5, 5-(N-hydroxylamino)-5-benzyl-barbituric acid]	1.53 h	0.00013 s⁻¹	–	–	–
COc1ccc(CC2(NO)C(=O)N(C)C(=O)N(C)C2=O)cc1 [Compound 2, 5-(N-hydroxylamino)-5-(4-methoxybenzyl)-N,N-dimethylbarbituric acid]	–	8e-05 s⁻¹	96^d	0.00015 s⁻¹	melting point: 108 to 110 °C
C=CCC1(NO)C(=O)NC(=O)NC1=O [Compound 9, 5-(N-hydroxylamino)-5-(2-propen-1-yl)-barbituric acid]	1.5 h	0.00013 s⁻¹	–	–	–
CN1C(=O)N(C)C(=O)C(Cc2ccccc2)(NO)C1=O [Compound 1, 5-(N-hydroxylamino)-5-benzyl-N,N-dimethylbarbituric acid]	–	0.00015 s⁻¹	99^d	0.00031 s⁻¹	melting point: 155 to 157 °C
O=C1NC(=O)C(NO)(c2ccccc2)C(=O)N1 [Compound 8, 5-(N-hydroxylamino)-5-phenyl-barbituric acid]	0.233 h	0.00082 s⁻¹	–	–	–
CC1(NO)C(=O)NC(=O)NC1=O [Compound 17, 5-(N-hydroxylamino)-5-methyl-barbituric acid]	0.767 h	0.00025 s⁻¹	–	–	–
CC(C)C1(NO)C(=O)NC(=O)NC1=O [Compound 11, 5-(N-hydroxylamino)-5-(1-methylethyl)-barbituric acid]	–	–	98	3.1e-06 s⁻¹	half-life (physchem [4]): 62.4 h
COc1ccc(CC2(NO)C(=O)NC(=O)NC2=O)cc1 [Compound 6, 5-(N-hydroxylamino)-5-(4-methoxybenzyl)-barbituric acid]	2.2 h	8.8e-05 s⁻¹	–	–	–
CCC1(NO)C(=O)N(C)C(=O)N(C)C1=O [5-ethyl HABA, 5-(N-hydroxylamine)-5-ethyl-N,N-dimethylbarbituric acid]	–	–	–	–	HNO production [5]: less than the desired amount of HNO
CCCC(C)C1(NO)C(=O)NC(=O)NC1=O (stereo not drawn) [Compound 12, 5-(N-hydroxylamino)-5-(1-methylbutyl)-barbituric acid]	–	–	102	5e-06 s⁻¹	half-life (physchem [4]): 38.5 h
CCC(C)C1(NO)C(=O)NC(=O)NC1=O (stereo not drawn) [Compound 18, 5-(N-hydroxylamino)-5-(1-methylpropyl)-barbituric acid]	–	–	102	5.9e-06 s⁻¹	half-life (physchem [4]): 32.9 h
O=C1NC(=O)C(Cc2ccccc2Cl)(NO)C(=O)N1 [Compound 14, 5-(N-hydroxylamino)-5-(2-chlorobenzyl)-barbituric acid]	0.683 h	0.00029 s⁻¹	–	–	–
CCC1(NO)C(=O)NC(=O)NC1=O [Compound 4, 5-(N-hydroxylamino)-5-ethyl-barbituric acid]	–	3.7e-05 s⁻¹	97^d	0.00011 s⁻¹	pKa [6]: ~7.4; melting point: > 300 °C
CC(C)CC1(NO)C(=O)NC(=O)NC1=O [Compound 10, 5-(N-hydroxylamino)-5-(2-methylpropyl)-barbituric acid]	0.383 h	0.0005 s⁻¹	–	–	–
